pKd: −log10 of the molar value. Like-named read-outs stand apart in the source and are kept apart here.
Key:
[1] = biological target: T1, AtPORB (Arabidopsis thaliana, UniProt P21218); experiment: […] K Pchlide fluorescence in darkness, F648/F635 ratio vs NADPH, hyperbolic fit; assay type: binding; settings: lipid-free; 5 μM Pchlide, 15 μM LPOR, pH 7.1, room-temperature dark incubation; apparent parameter, exact value in supplement; read-out: KM^D
T1 construct: gene PORB
T1 sequence (P21218 67-401): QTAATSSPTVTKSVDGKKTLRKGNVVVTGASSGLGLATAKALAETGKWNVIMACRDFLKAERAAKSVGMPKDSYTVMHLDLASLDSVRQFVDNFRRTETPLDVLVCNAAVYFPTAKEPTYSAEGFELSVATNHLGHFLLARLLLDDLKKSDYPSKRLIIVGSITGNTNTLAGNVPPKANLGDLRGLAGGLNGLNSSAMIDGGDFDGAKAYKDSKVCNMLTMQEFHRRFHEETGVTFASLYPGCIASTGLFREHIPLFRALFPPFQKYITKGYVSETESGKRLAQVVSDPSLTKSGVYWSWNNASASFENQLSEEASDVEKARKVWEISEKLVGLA

[2] = biological target: T2, SlPOR1 (Solanum lycopersicum, UniProt A0A3Q7HEX8); experiment: as above; assay type: binding; settings: lipid-free; 5 μM Pchlide, 15 μM LPOR, pH 7.1, room-temperature dark incubation; apparent parameter, exact value in supplement; read-out: KM^D
T2 construct: gene POR2; transit peptide removed; pET15b
T2 sequence (A0A3Q7HEX8 65-399): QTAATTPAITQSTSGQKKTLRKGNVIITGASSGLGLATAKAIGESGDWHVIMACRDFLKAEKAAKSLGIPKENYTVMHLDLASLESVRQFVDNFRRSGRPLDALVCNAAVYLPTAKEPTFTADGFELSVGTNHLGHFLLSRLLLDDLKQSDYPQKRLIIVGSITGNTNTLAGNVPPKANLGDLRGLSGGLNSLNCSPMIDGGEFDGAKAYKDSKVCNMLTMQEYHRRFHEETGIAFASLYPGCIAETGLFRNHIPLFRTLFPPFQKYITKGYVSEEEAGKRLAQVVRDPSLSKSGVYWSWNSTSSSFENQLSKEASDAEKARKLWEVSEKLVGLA

[3] = biological target: T3, SlPOR3 (Solanum lycopersicum, UniProt A0A3Q7J565); experiment: as above; assay type: binding; settings: lipid-free; 5 μM Pchlide, 15 μM LPOR, pH 7.1, room-temperature dark incubation; apparent parameter, exact value in supplement; read-out: KM^D
T3 construct: gene LOC101248079; transit peptide removed; pET15b
T3 sequence (A0A3Q7J565 63-397): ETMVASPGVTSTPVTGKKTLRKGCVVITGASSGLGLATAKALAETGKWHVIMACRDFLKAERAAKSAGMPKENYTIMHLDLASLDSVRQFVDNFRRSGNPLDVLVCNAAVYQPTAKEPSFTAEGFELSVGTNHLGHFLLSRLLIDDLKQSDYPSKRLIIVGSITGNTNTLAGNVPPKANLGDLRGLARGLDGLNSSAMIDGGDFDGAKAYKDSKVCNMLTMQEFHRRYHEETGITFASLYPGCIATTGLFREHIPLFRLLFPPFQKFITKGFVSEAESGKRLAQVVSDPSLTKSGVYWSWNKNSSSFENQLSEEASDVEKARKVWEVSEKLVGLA

[4] = biological target: T4, AtPORC (Arabidopsis thaliana, UniProt O48741); experiment: biochemical; settings: 400 uM OPT lipids, 5 uM Pchlide, 15 uM LPOR
T4 construct: gene PORC
T4 sequence (O48741 68-401): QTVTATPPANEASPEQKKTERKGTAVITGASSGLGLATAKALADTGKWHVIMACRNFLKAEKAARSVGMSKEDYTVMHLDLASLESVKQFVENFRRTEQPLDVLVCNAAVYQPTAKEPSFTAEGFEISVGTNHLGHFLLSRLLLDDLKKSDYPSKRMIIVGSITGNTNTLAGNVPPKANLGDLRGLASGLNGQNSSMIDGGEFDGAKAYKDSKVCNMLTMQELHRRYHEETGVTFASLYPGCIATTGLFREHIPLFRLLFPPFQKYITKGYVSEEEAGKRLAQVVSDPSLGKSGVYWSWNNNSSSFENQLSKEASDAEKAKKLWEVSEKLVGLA
Experimental: (§1) (Figs. 3A, S2). […] The resulting plots resembled saturation curves, to which a hyperbolic function similar to the Michaelis–Menten equation could be fitted (Figs. 3B, S3, Materials and Methods). […] However, KM^L values were consistently lower than KM^D values. […] The addition of 400 μM OPT lipids lowered the KM^D constant for all isoforms, except for SlPOR1, SlPOR3, HaPOR1, HaPOR2, and PeaPOR, where the constant remained unchanged within error estimates. […] Shaded areas represent the SD between replicates. […] A fit of a modified Michaelis–Menten equation is shown, along with the graphical representation of KM^D (B) or KM^L (C). Spectra corresponding to the given F648/F635 values (B) or F Chlide/F Pchlide values (C) are shown on the right side of the plot. D, relationship between KM^D and KM^L for investigated isoforms. The overall distribution of data points is shown in gray. Error bars represent the uncertainty associated with the fitted constant KM^x. Closed symbols represent constants determined for samples not supplemented with lipids, while open symbols these determined in the presence of 400 μM OPT lipids. LPOR, light-dependent protochlorophyllide oxidoreductase; Pchlide, protochlorophyllide; Chlide, chlorophyllide.

[5] = biological target: T5, HaPOR2 (Helianthus annuus, UniProt A0A251TWA4); experiment: biochemical; settings: 5 uM Pchlide, 15 uM LPOR
T5 construct: gene PORA; transit peptide removed; pET15b
T5 sequence (A0A251TWA4 53-387): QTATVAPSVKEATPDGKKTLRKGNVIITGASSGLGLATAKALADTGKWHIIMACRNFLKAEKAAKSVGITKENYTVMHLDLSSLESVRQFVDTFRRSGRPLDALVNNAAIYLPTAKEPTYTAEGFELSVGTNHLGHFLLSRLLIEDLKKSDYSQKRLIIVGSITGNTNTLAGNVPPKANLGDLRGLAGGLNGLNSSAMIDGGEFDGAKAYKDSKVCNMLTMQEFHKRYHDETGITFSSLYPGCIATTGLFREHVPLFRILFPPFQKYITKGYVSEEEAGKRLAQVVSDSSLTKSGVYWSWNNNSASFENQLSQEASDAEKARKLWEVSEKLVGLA
Experimental: as §1

[6] = biological target: T2, SlPOR1; settings: 5 uM Pchlide, 15 uM LPOR, binder
Experimental: as §1

[7] = biological target: T3, SlPOR3; settings: 5 uM Pchlide, 15 uM LPOR, binder
Experimental: as §1

## NC(=O)C1=CN([C@@H]2O[C@H](COP(=O)(O)OP(=O)(O)OC[C@H]3O[C@@H](n4cnc5c(N)ncnc54)[C@H](OP(=O)(O)O)[C@@H]3O)[C@@H](O)[C@H]2O)C=CC1 [NADPH]
[1]
  pKd: < 4.00
[2]
  pKd: > 5.00
[3]
  pKd: > 5.00
[4]
  Michaelis-like constant in the dark (KM^D): 0.8 µM
[5]; 400 uM OPT lipids
  Dark Michaelis-like constant (KM^D): 2.2 µM
[5]; no lipids
  apparent Michaelis constant in the dark (KM^D): 9.4 µM
[6]; 400 uM OPT lipids
  apparent Michaelis constant in the dark (KM^D): 7.2 µM
[6]; no lipids
  apparent Michaelis constant in the dark (KM^D): 8.6 µM
[7]; 400 uM OPT lipids
  apparent Michaelis constant in dark (KM^D): 3 µM
[7]; no lipids
  apparent KM (dark, KM^D): 4.9 µM
